Source: the OligoGym collection
After the bases stand the sugars from the 5' end (letter, count) and the backbone: PS all phosphorothioate, else s phosphorothioate and o phosphodiester by linkage. Methylation of C is not given here. e = 2'-O-(2-methoxyethyl) (MOE); k = constrained ethyl (cEt); d = 2'-deoxy (DNA); m = 2'-O-methyl

Biological target: HSD17B13
Details: ASO, HepaRG

Sequence | target mRNA inhibition (1 µM) | also measured
GCAGAAATTCACCTTG (sugars kkdddddddddkekek, PS) | 53% | 
ATATTGTTTAGCTGAT (sugars k3 d10 k3, PS) | 14% | 
CTGGAAGATTAATCAT (sugars k3 d10 k3, PS) | 31% | 
ATTTAGTTGGTAGCTT (sugars k3 d10 k3, PS) | 35% | 
ACCAACGACTCCAAGT (sugars k3 d10 k3, PS) | 16% | 
TTAAGATGTCCAGGCA (sugars k3 d10 k3, PS) | 35% | 
TAGGTAGCTAATGTAT (sugars k3 d10 k3, PS) | 34% | 
CTCTATTGATTGGCTT (sugars k3 d10 k3, PS) | 65% | 
GATTAGTCTTGATGTA (sugars k3 d9 k3 e1, PS) | 48% | 
GTAAATGATGGCAGGA (sugars k3 d10 k3, PS) | 34% | 
ACAAGAGGATAGTCCA (sugars k3 d10 k3, PS) | 64% | 
TTGAGTAGTGTAAGCT (sugars kkdddddddddkekek, PS) | 29% | 
TAGTGGACTTCATTAG (sugars kkdddddddddkekek, PS) | 41% | 
GATGCTCCATAATAAT (sugars k3 d10 k3, PS) | 42% | 
CGCCTAAAGGAGATCT (sugars k3 d10 k3, PS) | 59% | 
GAAACTTGATCTCTTA (sugars k3 d10 k3, PS) | 64% | 
GCTTTGCAGCATTGAT (sugars k3 d10 k3, PS) | 61% | 
GATCTGAGTTACATTA (sugars k3 d10 k3, PS) | 69% | 
TAGGAGTAGATGATGG (sugars k3 d10 k3, PS) | 15% | 
TTAAGAGAAGGTGCAC (sugars k3 d10 k3, PS) | 38% | 
CAATATGGGATGAGGT (sugars k3 d10 k3, PS) | 62% | 
CCAAACATGGATGTTA (sugars k3 d10 k3, PS) | 43% | 
CTAAAGGAGATCTGAG (sugars k3 d10 k3, PS) | 47% | 
ACCTATGGTCTAACAC (sugars k3 d10 k3, PS) | 14% | 

Sequence | target mRNA inhibition (1 µM) | also measured
ATTATACTTTTCCGTC (sugars k3 d10 k3, PS) | 75% | target mRNA inhibition (0.02 µM): 12%; target mRNA inhibition (0.078 µM): 0%; target mRNA inhibition (0.313 µM): 47%; target mRNA inhibition (1.25 µM): 75%; target mRNA inhibition (5 µM): 84%
CATCTTAAGATACCCA (sugars k3 d10 k3, PS) | 76% | target mRNA inhibition (0.02 µM): 0%; target mRNA inhibition (0.078 µM): 23%; target mRNA inhibition (0.313 µM): 46%; target mRNA inhibition (1.25 µM): 75%; target mRNA inhibition (5 µM): 90%
CTGTATTAAGACAGTT (sugars k3 d10 k3, PS) | 41% | 
CACCGCGCTTATTAAT (sugars k3 d10 k3, PS) | 7% | 
CGTAAATATTCTTGAG (sugars k3 d10 k3, PS) | 61% | 
AGTAGTGTAAGCTGAG (sugars k3 d9 k3 e1, PS) | 71% | 
GAGTAGATGATGGTGA (sugars k3 d10 k3, PS) | 28% | 
CCTAAAGGAGATCTGA (sugars k3 d10 k3, PS) | 48% | 
GGCAAATTTGCTGGAA (sugars k3 d10 k3, PS) | 54% | 
TCTTGACAATGGTTGA (sugars k3 d1 m1 d8 k3, PS) | 56% | 
ATGGCTACAGATTGGA (sugars k3 d9 k3 e1, PS) | 65% | 
CTTCATAGTGGACTTC (sugars k3 d1 m1 d8 k3, PS) | 35% | 
TGATATTCTGTGGCAT (sugars k3 d1 m1 d8 k3, PS) | 61% | 
GTCTTGATGTAGTGGG (sugars kkdddddddddkekek, PS) | 18% | 
ACGCATGCGCAGTGAC (sugars k3 d10 k3, PS) | 52% | 
TTAGAAGTCAGCCCAA (sugars k3 d10 k3, PS) | 37% | 
CTCAGGCTGTAAGAGT (sugars kkdddddddddkekek, PS) | 10% | 
TGAGTAGTGTAAGCTG (sugars k3 d10 k3, PS) | 62% | 
AGGCCATAATCTTGTG (sugars k3 d10 k3, PS) | 33% | 
CATAGAACTAGAACTC (sugars k3 d10 k3, PS) | 19% | 
ACCTTCCCTGTGTAAA (sugars k3 d10 k3, PS) | 60% | 
GTTAATGTAGTGTTTA (sugars k3 d10 k3, PS) | 77% | target mRNA inhibition (0.02 µM): 7%; target mRNA inhibition (0.078 µM): 25%; target mRNA inhibition (0.313 µM): 45%; target mRNA inhibition (1.25 µM): 78%; target mRNA inhibition (5 µM): 92%
GTCCTAGGGAGGAGGT (sugars k3 d10 k3, PS) | 36% | 
TATAGACTGGGTAGGA (sugars k3 d10 k3, PS) | 61% | 

Sequence | target mRNA inhibition (1 µM) | also measured
TAGAGAGCGATAGATC (sugars k3 d10 k3, PS) | 22% | 
TAGCCAGTACAGTTCC (sugars k3 d10 k3, PS) | 52% | 
GAAAAAGGTTATCATG (sugars k3 d10 k3, PS) | 31% | 
CCAGUACAGTTCCTTT (sugars k3 d1 m1 d8 k3, PS) | 51% | 
TCCAAAGATGAGAGTC (sugars k3 d10 k3, PS) | 17% | 
CCAGAATAGAGTTGCA (sugars k3 d10 k3, PS) | 62% | 
ACATATGTGAAGAGCT (sugars k3 d10 k3, PS) | 66% | 
TAGCTAATGTATGAGG (sugars k3 d10 k3, PS) | 48% | 
TGGCTATAGTAATTGC (sugars k3 d10 k3, PS) | 34% | 
TCCATAATAATAGCTC (sugars k3 d9 k3 e1, PS) | 66% | 
ATATTCTGTGGCATGG (sugars k3 d10 k3, PS) | 69% | 
ATGCTAGTAATTGCAT (sugars k3 d10 k3, PS) | 16% | 
GAATGCTACTTGAACA (sugars kkdddddddddkekek, PS) | 48% | 
ACTGAAGGCTGTGTAC (sugars k3 d10 k3, PS) | 14% | 
ATATTCTGTGGCATGG (sugars k3 d9 k3 e1, PS) | 58% | 
CGGCCTATTCTTCTGT (sugars k3 d10 k3, PS) | 25% | 
ACATTGCAGTTATTAG (sugars kkdddddddddkekek, PS) | 46% | 
TTATAGACTGGGTAGG (sugars k3 d10 k3, PS) | 51% | 
AAGACATTCTAGCCTG (sugars k3 d9 k3 e1, PS) | 40% | 
CCGTTTTGGGCTAATG (sugars kkdddddddddkekek, PS) | 72% | target mRNA inhibition (0.02 µM): 0%; target mRNA inhibition (0.078 µM): 4%; target mRNA inhibition (0.313 µM): 36%; target mRNA inhibition (1.25 µM): 52%; target mRNA inhibition (5 µM): 78%
TATTATGCACTCTATA (sugars k3 d10 k3, PS) | 9% | 
CCAACCAAACTTCCAG (sugars k3 d9 k3 e1, PS) | 47% | 
TGCTACTTGAACAGTC (sugars k3 d9 k3 e1, PS) | 68% | 
TTTTGTCCACCTTTAA (sugars k3 d10 k3, PS) | 68% | 

Sequence | target mRNA inhibition (1 µM) | also measured
GTGCATCTTAAGATAC (sugars k3 d9 k3 e1, PS) | 29% | 
ATTCTGTGGCATGGCT (sugars k3 d10 k3, PS) | 69% | 
TCTAAATTACTCCGTT (sugars k3 d10 k3, PS) | 15% | 
CGATCCTATATACATC (sugars k3 d1 m1 d8 k3, PS) | 28% | 
AAACATCTCTGGGACC (sugars k3 d10 k3, PS) |  | target mRNA inhibition (0.02 µM): 0%; target mRNA inhibition (0.078 µM): 0%; target mRNA inhibition (0.313 µM): 33%; target mRNA inhibition (1.25 µM): 56%; target mRNA inhibition (5 µM): 78%
AAATTCATAAGTAGTC (sugars k3 d10 k3, PS) | 39% | 
CACCGTTTTGGGCTAA (sugars k3 d1 m1 d8 k3, PS) | 82% | target mRNA inhibition (0.02 µM): 12%; target mRNA inhibition (0.078 µM): 32%; target mRNA inhibition (0.313 µM): 54%; target mRNA inhibition (1.25 µM): 71%; target mRNA inhibition (5 µM): 84%
TATTAATATGACTTGC (sugars k3 d10 k3, PS) | 25% | 
ATACATACCACTCTTC (sugars k3 d10 k3, PS) | 18% | 
AGTTAGTATAGTTATC (sugars k3 d9 k3 e1, PS) | 47% | 
CAAGAGACACCACCAG (sugars k3 d10 k3, PS) | 50% | 
CAGCATCAAGACATTC (sugars kkdddddddddkekek, PS) | 62% | 
TTTATAACTACAAGAG (sugars k3 d10 k3, PS) | 38% | 
TGCCCCGAATTATTTC (sugars k3 d10 k3, PS) | 3% | 
ACATTGCAGTTATTAG (sugars k3 d9 k3 e1, PS) | 52% | 
TATTTAGGGCAAACCT (sugars k3 d10 k3, PS) | 40% | 
TCTTACATGATTAAGC (sugars k3 d10 k3, PS) | 35% | 
AGGCAAGGATACCTGA (sugars k3 d10 k3, PS) | 42% | 
GTAATTGCTATAGTAA (sugars k3 d10 k3, PS) | 33% | 
GAGTTCTACACCACAC (sugars k3 d10 k3, PS) | 76% | target mRNA inhibition (0.02 µM): 0%; target mRNA inhibition (0.078 µM): 19%; target mRNA inhibition (0.313 µM): 32%; target mRNA inhibition (1.25 µM): 65%; target mRNA inhibition (5 µM): 87%
AGCCTAAAATTGTCTA (sugars k3 d10 k3, PS) | 53% | 
AGGGAGACCATGCTGC (sugars k3 d10 k3, PS) | 79% | target mRNA inhibition (0.02 µM): 10%; target mRNA inhibition (0.078 µM): 28%; target mRNA inhibition (0.313 µM): 52%; target mRNA inhibition (1.25 µM): 59%; target mRNA inhibition (5 µM): 79%
CACTGATACATACCAC (sugars k3 d10 k3, PS) | 64% | 
GTAATTGGCTCTTGAG (sugars k3 d10 k3, PS) | 44% | 
